Experiment [1] concerns the target T1, fatty acid amide hydrolase (r-FAAH) (Rattus norvegicus, UniProt P97612).
In experiment [2] the target is T1, fatty acid amide hydrolase (r-FAAH). Put plainly: biochemical.

This is an account of results in publication PMC9264488, “Potentiation of endocannabinoids and other lipid amides prevents hyperalgesia and inflammation in a pre-clinical model of migraine” (The Journal of Headache and Pain, 2022).

The structures appear in SMILES notation. Read-outs that look alike come from different tables or passages of the source.

T1 sequence (P97612 whole entry): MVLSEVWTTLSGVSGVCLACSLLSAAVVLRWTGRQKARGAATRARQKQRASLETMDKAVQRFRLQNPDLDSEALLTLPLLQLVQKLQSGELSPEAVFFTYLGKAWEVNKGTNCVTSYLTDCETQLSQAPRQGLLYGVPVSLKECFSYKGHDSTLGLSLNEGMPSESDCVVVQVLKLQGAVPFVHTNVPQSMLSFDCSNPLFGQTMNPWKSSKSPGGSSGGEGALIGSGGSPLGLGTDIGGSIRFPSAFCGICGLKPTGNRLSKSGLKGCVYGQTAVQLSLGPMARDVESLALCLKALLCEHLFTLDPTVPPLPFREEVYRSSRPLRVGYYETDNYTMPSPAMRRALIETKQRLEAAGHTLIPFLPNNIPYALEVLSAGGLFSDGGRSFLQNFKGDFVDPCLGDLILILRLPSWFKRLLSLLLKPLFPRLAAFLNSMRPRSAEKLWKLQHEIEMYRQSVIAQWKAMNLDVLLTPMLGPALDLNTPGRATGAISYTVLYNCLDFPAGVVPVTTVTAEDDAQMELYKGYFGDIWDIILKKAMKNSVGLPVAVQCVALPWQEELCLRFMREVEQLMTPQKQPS

As usually defined, the IC50 is the point on the concentration scale where inhibition reaches its midpoint. Read a high IC50 as weaker potency. Take `CNC(=O)c1cccc(-c2cc(OC(=O)NC3CCCCC3)ccc2F)c1` [ARN14633, [4-fluoro-3-[3-(methylcarbamoyl)phenyl]phenyl] N-cyclohexylcarbamate]: in experiment [1], the IC50 is 1.4 ± 0.3 nM. `NC(=O)c1cccc(-c2cc(OC(=O)NC3CCCCC3)ccc2OC(F)F)c1` [ARN14280, [3-(3-carbamoylphenyl)-4-(difluoromethoxy)phenyl] N-cyclohexylcarbamate] gave an IC50 in experiment [2] of 1.5 ± 0.3 nM.
